In the experiment the test system is BDF1 mice, P388 leukemia ip, median survival T/C. The experiment is described as follows: NCI In Vivo Anticancer Drug Screen. Data for tumor model P388 Leukemia (intraperitoneal) in B6D2F1 (BDF1) mice. The following applies: endpoint: median survival time, higher = longer survival. Here is the method:
The antitumor activity of compounds was measured in mice bearing transplantable tumors. Survival or tumor size were measured and the results are expressed as the measurement made in the treated group (T) divided by the measurement made in the vehicle treated control group (C). The tumor model used in this assay is P388 Leukemia (intraperitoneal) in B6D2F1 (BDF1) mice

Where [1] appears, read: dose: 100.0 mg/kg/injection, schedule: Q04DX003 (ip), vehicle: saline with Tween-80.
Setting [2] is: dose: 200.0 mg/kg/injection, schedule: Q04DX003 (ip), vehicle: saline with Tween-80.
Where [3] appears, read: dose: 400.0 mg/kg/injection, schedule: Q04DX003 (ip), vehicle: saline with Tween-80.
Where [4] appears, read: dose: 12.5 mg/kg/injection, schedule: Q04DX003 (ip), vehicle: saline with Tween-80.
The mark [5] stands for this setting: dose: 25.0 mg/kg/injection, schedule: Q04DX003 (ip), vehicle: saline with Tween-80.
[6] abbreviates: dose: 50.0 mg/kg/injection, schedule: Q04DX003 (ip), vehicle: saline with Tween-80.
[7] abbreviates: dose: 100.0 mg/kg/injection, schedule: Q01DX001 (ip), vehicle: saline with Tween-80.
Setting [8] is: dose: 200.0 mg/kg/injection, schedule: Q01DX001 (ip), vehicle: saline with Tween-80.
[9] abbreviates: dose: 400.0 mg/kg/injection, schedule: Q01DX001 (ip), vehicle: saline with Tween-80.
[10] abbreviates: dose: 50.0 mg/kg/injection, schedule: Q01DX009 (ip), vehicle: saline with Tween-80.
Setting [11] is: dose: 100.0 mg/kg/injection, schedule: Q01DX009 (ip), vehicle: saline with Tween-80.
Where [12] appears, read: dose: 200.0 mg/kg/injection, schedule: Q01DX009 (ip), vehicle: saline with Tween-80.
The mark [13] stands for this setting: dose: 50.0 mg/kg/injection, schedule: Q01DX009 (ip), vehicle: saline.
The mark [14] stands for this setting: dose: 100.0 mg/kg/injection, schedule: Q01DX009 (ip), vehicle: saline.
Where [15] appears, read: dose: 200.0 mg/kg/injection, schedule: Q01DX009 (ip), vehicle: saline.
Setting [16] is: dose: 400.0 mg/kg/injection, schedule: Q01DX009 (ip), vehicle: saline.
The mark [17] stands for this setting: dose: 25.0 mg/kg/injection, schedule: Q01DX009 (ip), vehicle: saline with Tween-80.
The mark [18] stands for this setting: dose: 400.0 mg/kg/injection, schedule: Q01DX009 (ip), vehicle: saline with Tween-80.

Where “and” joins values, the source holds several entries; their conditions need not be identical. Equal values may be shown once. Toxic doses and inconclusive results are not listed.

From PubChem BioAssay AID328 (DTP/NCI, 2004) come the findings set out here.

With `CC(=O)OCC(=O)[C@@]1(O)CC[C@H]2[C@@H]3C[C@H](F)C4=CC(=O)CC[C@]4(C)[C@H]3C(=O)C[C@@]21C`, the T/C (dose: 100.0 mg/kg/injection, schedule: Q01DX009 (ip), vehicle: other) is 100 % of control.
Take `Cc1ccc(C2=NNc3n[nH]c(=S)n3N2)cc1`: the T/C is, setting by setting: under setting [1], 91 % of control; under setting [2], 95 % of control; under setting [3], 100 % of control.
Regarding `CC(=O)Nc1ncnc2n[nH]c(C#N)c12`, the T/C reads like this: under setting [4], 117 % of control; under setting [5], 95 % of control; under setting [6], 104 % of control; under setting [1], 106 % of control.
Take `CCOC(=O)C(=Cc1ccc(O)c(OC)c1)C(=O)OCC`: the T/C by setting is: under setting [7], 90 % of control; under setting [8], 95 % of control; under setting [9], 104 % of control.
Take `N#CCCN(C(=S)Nc1cccc(C(F)(F)F)c1)C1CCCCC1`: the T/C under setting [10] was 114 % of control and 123 % of control; the T/C under setting [11] was 110 % of control and 111 % of control; the T/C under setting [12] was 106 % of control.
`CCOC(=O)C(NC=O)C(=O)OCC`: the T/C is 105 % of control under setting [13], 94 % of control under setting [14], 93 % of control under setting [15] and 93 % of control under setting [16].
`O=C1CN=C(c2ccc[nH]2)c2cc(Cl)ccc2N1`: the T/C by setting is: under setting [17], 118 % of control; (dose: 45.0 mg/kg/injection, schedule: Q01DX009 (oral), vehicle: saline) 104 % of control; under setting [10], 100 % of control; under setting [13], 97 % of control; (dose: 65.0 mg/kg/injection, schedule: Q01DX009 (oral), vehicle: saline) 100 % of control; under setting [7], 95 % of control. Also, the T/C reads like this: (dose: 100.0 mg/kg/injection, schedule: Q01DX001 (oral), vehicle: saline with Tween-80) 90 % of control; under setting [11], 118 % of control; under setting [14], 105 % of control; (dose: 100.0 mg/kg/injection, schedule: Q01DX009 (oral), vehicle: saline with Tween-80) 95 % of control; under setting [8], 104 % of control; (dose: 200.0 mg/kg/injection, schedule: Q01DX001 (oral), vehicle: saline with Tween-80) 86 % of control. In addition, the T/C by setting is: under setting [12], 118 % of control; under setting [15], 97 % of control; (dose: 200.0 mg/kg/injection, schedule: Q01DX009 (oral), vehicle: saline with Tween-80) 104 % of control; under setting [9], 90 % of control; (dose: 400.0 mg/kg/injection, schedule: Q01DX001 (oral), vehicle: saline with Tween-80) 95 % of control; under setting [18], 163 % of control. Moreover, the T/C was 103 % of control under setting [16]; 109 % of control (dose: 800.0 mg/kg/injection, schedule: Q01DX001 (ip), vehicle: saline with Tween-80); 100 % of control (dose: 800.0 mg/kg/injection, schedule: Q01DX001 (oral), vehicle: saline with Tween-80).
For `O=C1NCCS1`, the T/C was 90 % of control (dose: 100.0 mg/kg/injection, schedule: Q04DX003 (ip), vehicle: saline sonified); 90 % of control (dose: 200.0 mg/kg/injection, schedule: Q04DX003 (ip), vehicle: saline sonified); 95 % of control (dose: 400.0 mg/kg/injection, schedule: Q04DX003 (ip), vehicle: saline sonified).
As to `CCCC(C(=O)OCCN1CCCC12CCCCC2)C1CCCC1` (configuration not stated), the T/C was 107 % of control (dose: 12.5 mg/kg/injection, schedule: Q01DX009 (ip), vehicle: saline with Tween-80); 108 % of control under setting [17]; 119 % of control under setting [10].
As to `Cc1cc(C)c(OC(=O)CNC(=O)C(C)NC(=O)OC(C)(C)C)c(C)c1` (configuration not stated), the T/C runs as follows: (dose: 50.0 mg/kg/injection, schedule: Q01DX005 (ip), vehicle: Klucel (hydroxypropylcellulose) (HPC)) 91 % of control; (dose: 100.0 mg/kg/injection, schedule: Q01DX005 (ip), vehicle: Klucel (hydroxypropylcellulose) (HPC)) 97 % of control; (dose: 200.0 mg/kg/injection, schedule: Q01DX005 (ip), vehicle: Klucel (hydroxypropylcellulose) (HPC)) 91 % of control.
As to `O=C(NCCNc1ccc(F)cc1)C12CC3CC(CC(C3)C1)C2`, the T/C by setting is: under setting [10], 91 % of control; under setting [11], 104 % of control; under setting [12], 97 % of control.
As for `CCOC(=O)C(C(=O)OCC)C(C)C`, the T/C was 105 % of control (dose: 100.0 mg/kg/injection, schedule: Q04DX003 (ip), vehicle: saline); 105 % of control (dose: 200.0 mg/kg/injection, schedule: Q04DX003 (ip), vehicle: saline); 115 % of control (dose: 400.0 mg/kg/injection, schedule: Q04DX003 (ip), vehicle: saline).
Regarding `Oc1c(Cl)cc(Cl)cc1C1N=NC2=C(CCCC2)N1O` (configuration not stated), the T/C is, setting by setting: under setting [10], 106 % of control; under setting [11], 88 % of control; under setting [12], 93 % of control.
`CSCS(=O)C[C@H](CO)NC(=O)/C=C/c1c(C)[nH]c(=O)[nH]c1=O` (some centres not stated): the T/C reads like this: (dose: 0.15 mg/kg/injection, schedule: Q01DX010 (ip), vehicle: saline) 109 % of control; (dose: 0.3 mg/kg/injection, schedule: Q01DX010 (ip), vehicle: saline) 122 % of control; (dose: 0.6 mg/kg/injection, schedule: Q01DX010 (ip), vehicle: saline) 172 % of control; (dose: 0.72 mg/kg/injection, schedule: Q04DX003 (ip), vehicle: saline) 105 % of control; (dose: 0.78 mg/kg/injection, schedule: Q04DX002 (ip), vehicle: Klucel (hydroxypropylcellulose) (HPC)) 100 % of control and 109 % of control; (dose: 0.86 mg/kg/injection, schedule: Q04DX003 (ip), vehicle: saline) 108 % of control. Besides, the T/C was 121 % of control (dose: 1.0 mg/kg/injection, schedule: Q04DX003 (ip), vehicle: saline); 100 % of control (dose: 1.2 mg/kg/injection, schedule: Q01DX010 (ip), vehicle: saline); 123 % of control (dose: 1.2 mg/kg/injection, schedule: Q04DX003 (ip), vehicle: saline); 109 % of control (dose: 1.56 mg/kg/injection, schedule: Q04DX002 (ip), vehicle: Klucel (hydroxypropylcellulose) (HPC)); 156 % of control (dose: 2.0 mg/kg/injection, schedule: Q04DX003 (ip), vehicle: saline); 97 % of control (dose: 2.4 mg/kg/injection, schedule: Q04DX003 (ip), vehicle: saline). Besides, the T/C runs as follows: (dose: 3.33 mg/kg/injection, schedule: Q04DX003 (ip), vehicle: saline) 106 % of control; (dose: 6.25 mg/kg/injection, schedule: Q04DX002 (ip), vehicle: Klucel (hydroxypropylcellulose) (HPC)) 118 % of control; (dose: 173.0 micrograms/kg/injection, schedule: Q01DX009 (ip), vehicle: saline) 106 % of control; (dose: 288.0 micrograms/kg/injection, schedule: Q01DX009 (ip), vehicle: saline) 110 % of control; (dose: 480.0 micrograms/kg/injection, schedule: Q01DX009 (ip), vehicle: saline) 99 % of control.
Regarding `CCOC(=O)CSc1nc2nc(Cl)c(Cl)nc2[nH]1`, the T/C was 112 % of control (dose: 3.12 mg/kg/injection, schedule: Q04DX003 (ip), vehicle: saline with Tween-80); 102 % of control (dose: 6.25 mg/kg/injection, schedule: Q04DX003 (ip), vehicle: saline with Tween-80); 100 % of control under setting [4]; 88 % of control under setting [17]; 102 % of control under setting [5]; 106 % of control under setting [10]. Besides, the T/C under setting [6] is 95 % of control and 102 % of control; the T/C under setting [11] is 92 % of control; the T/C under setting [1] is 103 % of control; the T/C under setting [12] was 100 % of control; the T/C under setting [2] was 97 % of control; the T/C under setting [18] is 106 % of control. Further, the T/C under setting [3] is 108 % of control.
